Data taken from patent US20260262641A1 (priority 2023, published 2026).

Columns and labels:
Format in all cases: in vivo
[1] = system: ground pearl (Margarodes spp); assay: Field trial in kikuyu turf, control of ground pearl, Robina (Example 6); conditions: for Ground pearls/plot, Adults, Pre-spray / Ground pearls/plot, Eggs, Pre-spray: Pre-spray (baseline), 20 cores per plot; for density of ground pearl eggs and adults (in words) / turf vigor (in words): versus untreated, P<0.05
Experimental: A field trial was conducted in kikuyu turf, to evaluate fenpyroximate for control of ground pearl (Margarodes spp). The trial was located at Robina, Queensland (−28.069442, 153.401817), in an area with a known infestation of ground pearl.
All treatments were applied using a hand boom fitted with XC08 nozzles, in a spray volume of 443 L/ha.
The ground pearl density by species was assessed prior to the first application and again 21 days after the third application by sampling 20 cores per plot and recording the number of eggs and adults. Turf vigor was assessed on a 0 to 10 rating scale (0=dead; 10=best quality/color) prior to the first application and 42 days after the third application.
(§1) All data was statistically analyzed using analysis of variance and Fisher's protected least significant different test (Fishers LSD). The level of significance for all tests was P<0.05.

[2] = system: ground pearl (Margarodes spp); assay: Field trial in kikuyu turf, control of ground pearl, Sydney (Example 2); conditions: for NDVI, Pre-spray: Pre-spray (baseline), kikuyu turf, Greenseeker; for Ground pearls/plot, Adults, Pre-spray / Ground pearls/plot, Eggs, Pre-spray / Ground pearls/plot, Adults, 56 DAA3 / Ground pearls/plot, Eggs, 56 DAA3 / NDVI, 56 DAA3: sc; for Ground pearls/plot, Adults, 56 DAA3 / Ground pearls/plot, Eggs, 56 DAA3: 200 g/ha; for Ground pearls/plot, Adults, 56 DAA3 / Ground pearls/plot, Eggs, 56 DAA3 / NDVI, 56 DAA3: 1344 h
Experimental: A field trial was conducted in kikuyu turf, to evaluate fenpyroximate for control of ground pearl (Margarodes spp). The trial was located at Sydney University, New South Wales (−33.888, 151.188), in an area with a known infestation of ground pearl.
All treatments were applied using a hand boom fitted with XR11004 nozzles, in a spray volume of 430 L/ha.
The ground pearl density by species was assessed by sampling 20 cores per plot and recording the number of eggs and adults, and Normalized Difference Vegetation Index (NDVI) was assessed 56 days after the third application using a Greenseeker.
as §1

[3] = system: ground pearl (Margarodes spp); assay: Field trial in kikuyu turf, control of ground pearl, Robina (Example 6); conditions: sc
[4] = versus untreated, P<0.05, with PE 6200

Compound | Turf vigor (0-10), Pre-spray [1] | Ground pearls/plot, Adults, Pre-spray [1] | Ground pearls/plot, Eggs, Pre-spray [1] | density of ground pearl eggs and adults (in words) [1] | turf vigor (in words) [1] | NDVI, Pre-spray [2] | Ground pearls/plot, Adults, Pre-spray [2] | Ground pearls/plot, Eggs, Pre-spray [2] | Ground pearls/plot, Adults, 56 DAA3 [2] | Ground pearls/plot, Eggs, 56 DAA3 [2] | NDVI, 56 DAA3 [2] | density of ground pearl eggs (in words) [2, 4] | Turf vigor (0-10), 56 DAA3 [3] | density of ground pearl adults (in words) [2, 4]
O=[N+]([O-])NC1=NCCN1Cc1ccc(Cl)nc1 [Kohinor 350 SC, Imidacloprid] | 5.1 | 5.7 ground pearls/plot | 2.0 ground pearls/plot | significantly reduced | significantly improved | 8.25 | 10.5 a ground pearls/plot | 9.0 a ground pearls/plot | 13.8 a ground pearls/plot | 12.5 cd ground pearls/plot | 7.8 | did not reduce | 5.9 a | –
CN1COCN(Cc2cnc(Cl)s2)/C1=N\[N+](=O)[O-] [Meridian, Thiamethoxam] | 5.1 | 6.0 ground pearls/plot | 3.0 ground pearls/plot | significantly reduced | significantly improved | 7.5 | 15.5 a ground pearls/plot | 7.8 a ground pearls/plot | 9.8 a ground pearls/plot | 8.5 abc ground pearls/plot | 7.5 | significantly reduced | 6.0 a | significantly reduced
